Source: US9796777B2, “Methods of treating malignant tumors” (Canimguide Therapeutics AB, priority 2007, dated 2017)

Experiments:
[1] = tested on: PBMC; assay: Human ex vivo model: IL-2 induced proliferation of PBMC in the presence of albumin peptides
[2] = tested on: CD25; assay: Binding of biotinylated IL-2 to CD25-Fc fusion protein on ELISA plates with or without peptide 3028; settings: CD25-Fc on protein G coated plates
Description: Based on this observation, the effect of peptide 3028 on the binding of IL-2 to CD25 was studied. […] Amazingly, the binding of IL-2 to CD25 was enhanced by peptide 3028, indicating a three-part interaction between IL-2, CD25 and 3028.

[3] = tested on: PBMC; assay: IL-2 induced proliferation of PBMC in the presence of affinity purified rabbit anti-3028; type: cell-based, human; settings: small amount of peptide 3028 having no inhibitory activity per se
Description: Serum containing culture medium (100 ul/well) was pre-incubated with 20 ug/ml of rabbit antibodies for 30 min at room temperature before the addition of 100 ul PBMC suspension to the culture wells.

[4] = tested on: PBMCs; assay: PHA-induced proliferation of PBMC in the presence of albumin peptides and/or dHSA; type: cell-based, human; settings: PBMCs from two healthy controls; two PHA concentrations
[5] = target: T1, β2-integrin LFA-1 (CD11a) (Homo sapiens, UniProt P20701); assay: Immunocytochemical staining of PBMC and THP-1 with anti-integrin (CD11a) antibody with or without albumin peptides; type: binding; settings: mononuclear blood cells
T1 construct: endogenous in cells; host or cells: human PBMC (healthy controls, cancer patients) and THP-1 monocytic cell line (ATCC)
Description: Cytospin preparations of mononuclear blood cells from healthy controls, cancer patients and a monocytic cell line, THP-1, were prepared (as described under materials and methods), dried and stored at −70° C. In the immunocytological staining, unspecific staining was blocked by incubation with 10% human AB serum. Some of the slides were preincubated for 60 minutes with albumin peptides at a concentration of 40 μg/ml, added to this 10% AB serum, as indicated in the FIG. 8 A-F. The staining procedure was then continued as described in material and methods. The staining intensity of slides stained with and without preincubation with the peptides was recorded semi quantitatively using a standard light microscope.
PBMC were separated as described above. Cultured THP-1 cells (obtained from the American Type Culture Collection through LGL Nordic AB, Sweden) were carefully washed and suspended in RPMI1640. PBMC and THP-1 were immediately spun down on pre-cleaned microscope slides in a Shandon Cytospin (Shandon Scientific Ltd, UK) at 1000 RPM for 7 min at 2.5 or 5×10^4 cells per slide. The slides were left to dry at room temperature over night, after which they were wrapped in parafilm and stored at −70° C. Immediately before use, the cytospins were thawed and fixed with acetone for 5 min at room temperature. The cytospins were first blocked with 10% normal human AB-serum with and without albumin peptides (40 ␣g/ml) for 1 h before staining. Primary antibody, consisting of a monoclonal mouse anti-human CD11a (clone HI111, BD Biosciences) diluted in Tris buffered saline (TBS, pH 7.6) at 5 μg/ml (THP-1) or 1 µg/ml (PBMC), was added. The slides were incubated for 30 min and then washed in TBS followed by Envision-Alkaline Phosphatase (Dako Norden A/S, Denmark) for 30 min. After additional washing in TBS, the slides were incubated in alkaline phoshatase substrate consisting of Fast Red TR salt (Sigma), naphtol AS-MX (Sigma) and 5 mM levamisol (Sigma) to block endogenous alkaline phosphatase activity, for 20 min followed by washing in TBS. They were then counterstained in Mayer's haematoxylin for 1 minute and mounted in Glycergel (Dako Norden NS). Monoclonal mouse IgG1 against an irrelevant antigen (Aspergillus niger glukosoxidase, Dako Norden NS) was used as a negative control. All incubations were performed at room temperature in a moist chamber.
FIG. 24. Inhibition of the binding of anti-LFA-1, mab HI111, to mononuclear blood cells by 3028 peptide and fragments 3325 and 3218. A standard immunohistochemical staining procedure using acetone fixation, 10% human AB-serum for blocking, incubation with HI 111 and a secondary antibody (Ultravision, an alkaline phosphate conjugated polymer attached to Fab-fragments of goat anti-mouse Ig), followed by development with Fast Red. The slides were then mounted in Glycergel. Preincubation with peptides added to the AB serum was as follows: A. No peptide added, B. peptide 3028, C. The C-terminal part (3218), and D. The N-terminal part (3325).

T1 sequence (P20701 26-1170): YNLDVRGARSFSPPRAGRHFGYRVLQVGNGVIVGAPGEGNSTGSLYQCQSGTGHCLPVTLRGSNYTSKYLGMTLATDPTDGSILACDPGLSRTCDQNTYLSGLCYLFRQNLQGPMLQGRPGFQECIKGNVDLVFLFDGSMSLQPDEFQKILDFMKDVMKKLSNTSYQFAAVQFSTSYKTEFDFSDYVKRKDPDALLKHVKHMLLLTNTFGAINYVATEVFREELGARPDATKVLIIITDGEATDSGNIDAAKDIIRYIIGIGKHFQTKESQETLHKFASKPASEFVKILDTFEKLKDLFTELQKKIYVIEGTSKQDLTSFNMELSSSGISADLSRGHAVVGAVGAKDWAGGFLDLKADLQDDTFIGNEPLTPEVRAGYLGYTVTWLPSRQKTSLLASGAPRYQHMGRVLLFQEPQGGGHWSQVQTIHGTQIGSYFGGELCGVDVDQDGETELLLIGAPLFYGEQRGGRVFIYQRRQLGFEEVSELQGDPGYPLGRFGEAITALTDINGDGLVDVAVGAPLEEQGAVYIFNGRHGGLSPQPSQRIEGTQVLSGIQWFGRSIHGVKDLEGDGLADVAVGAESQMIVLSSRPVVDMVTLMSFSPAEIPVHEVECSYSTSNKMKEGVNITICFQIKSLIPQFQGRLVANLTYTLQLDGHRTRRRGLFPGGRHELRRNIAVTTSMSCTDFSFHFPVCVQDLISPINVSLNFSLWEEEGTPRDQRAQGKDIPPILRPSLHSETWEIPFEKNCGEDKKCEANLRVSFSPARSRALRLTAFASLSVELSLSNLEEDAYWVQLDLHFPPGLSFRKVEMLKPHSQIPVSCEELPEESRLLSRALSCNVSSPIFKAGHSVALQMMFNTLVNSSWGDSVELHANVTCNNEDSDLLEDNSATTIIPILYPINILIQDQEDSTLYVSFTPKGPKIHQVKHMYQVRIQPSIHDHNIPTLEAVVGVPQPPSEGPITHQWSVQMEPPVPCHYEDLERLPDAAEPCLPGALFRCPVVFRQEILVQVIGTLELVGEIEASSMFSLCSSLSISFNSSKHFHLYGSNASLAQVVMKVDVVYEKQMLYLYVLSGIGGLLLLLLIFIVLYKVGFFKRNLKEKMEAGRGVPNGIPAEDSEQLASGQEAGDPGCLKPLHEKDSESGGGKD
T1 sequence (P05107 23-769 partner): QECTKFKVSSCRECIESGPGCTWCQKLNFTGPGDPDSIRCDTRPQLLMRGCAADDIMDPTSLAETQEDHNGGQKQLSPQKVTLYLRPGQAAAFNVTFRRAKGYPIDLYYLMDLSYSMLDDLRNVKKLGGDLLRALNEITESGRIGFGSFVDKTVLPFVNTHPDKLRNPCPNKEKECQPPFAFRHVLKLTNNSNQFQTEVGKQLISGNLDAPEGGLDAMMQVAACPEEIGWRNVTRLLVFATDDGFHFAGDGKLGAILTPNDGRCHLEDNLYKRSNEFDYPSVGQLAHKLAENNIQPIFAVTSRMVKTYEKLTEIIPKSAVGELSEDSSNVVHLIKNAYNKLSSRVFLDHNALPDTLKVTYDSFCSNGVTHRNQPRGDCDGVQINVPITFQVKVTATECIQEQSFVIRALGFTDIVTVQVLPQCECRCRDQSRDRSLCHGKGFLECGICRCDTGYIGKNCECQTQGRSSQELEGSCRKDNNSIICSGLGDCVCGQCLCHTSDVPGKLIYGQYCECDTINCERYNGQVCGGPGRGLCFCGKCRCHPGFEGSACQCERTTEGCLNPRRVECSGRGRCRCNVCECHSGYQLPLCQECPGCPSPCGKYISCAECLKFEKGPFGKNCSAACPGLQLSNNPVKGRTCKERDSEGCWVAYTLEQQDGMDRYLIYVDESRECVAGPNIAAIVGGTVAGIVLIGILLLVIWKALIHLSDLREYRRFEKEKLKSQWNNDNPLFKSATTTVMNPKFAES
Chain of CD25 (P01589 22-240 limits assumed): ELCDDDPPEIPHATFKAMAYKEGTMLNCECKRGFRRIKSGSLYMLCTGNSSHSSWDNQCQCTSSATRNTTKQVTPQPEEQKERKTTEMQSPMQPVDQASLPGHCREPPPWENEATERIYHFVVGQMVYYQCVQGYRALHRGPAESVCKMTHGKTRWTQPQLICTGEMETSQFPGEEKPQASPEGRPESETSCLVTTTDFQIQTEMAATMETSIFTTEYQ

Sequence: VFDEFKPLVEEPQNLIK [peptide 3028]
- effect on IL-2 induced proliferation ([1]; cancer patient PBMCs): inhibitory activity
- effect on IL-2 induced proliferation ([1]; human ex vivo model, PBMCs from healthy controls, peptides 10 μg/ml): regularly inhibits IL-2 induced proliferation
- effect on the binding of IL-2 to CD25 [2]: enhanced
- effect on the stimulatory effect of anti-3028 antibodies [3]: neutralized
- effect on dHSA modulated PHA stimulated proliferation [4]: inhibited the stimulatory activity of dHSA
- effect on binding of the LFA-1 antibody (HI 111) to LFA-1 [5]: Both inhibition (FIG. 24) and enhancement of the binding
